The text below walks through data of PMC9879403, “Oncolytic strategy using new bifunctional HDACs/BRD4 inhibitors against virus-associated lymphomas” (PLOS Pathogens, 2023).

One data set relates to HDACs. Description: HDACs signaling by Western blot (H3K9Ac, H4K9Ac, Acetyl-tubulin). Particulars: BCBL-1 cells, 48 h, Western blot. Format: cell-based. (Immunoblotting shows a protein as a band on a membrane.)
Data set [1] concerns BCBL-1 cells. Description: Cell death regulatory proteins by Western blot. Particulars: 50 nM, 48 h. Format: cell-based.
Data set [2] deals with KSHV. Format: cell-based.
In the next data set the test system is HUVEC. The data set can be described thus: WST-1 cytotoxicity on primary cells HUVEC. The format is cell-based, human. The method, then:
(§1) The cell viability following treatment with compounds was assessed by the WST-1 assay (Roche, Indianapolis, Indiana, USA) according to the manufacturer’s protocol as described previously. The absorbance signal was measured using a microplate reader (Biotek Synergy 2). The 50% cytotoxic concentration (CC50) for each compound was calculated from these dose-response curves using the software GraphPad Prism v5.0. Data were normalized as the fold change compared to the DMSO control.
Supplementary file ppat.1011089.s006.tif: S5 Fig Cytotoxicity of tested compounds on HUVEC. The primary cells HUVEC were treated with indicated concentrations of compounds for 72 h, then cell viability was assessed using the WST-1 assay. The CC50 for each compound was calculated from the dose-response curves using Graphpad Prism 5.0 software. Data was normalized as the fold change compared to the DMSO control. (TIF) Click here for additional data file.
For orientation: Formazan colour is commonly taken as a measure of viable cells.

The test system of data set [3] is BCBL-1 cells. Description: PEL xenograft model (BCBL-1 cells i.p.). The note with it: 20 mg/kg. The method, then: (A) Plasma concentrations of (+)-JQ1, SAHA, or 009P1 after a single administration of 50 mg per kg body (i.p. injection) were presented as mean ± SD (n = 3 mice per time point). (B-E) NOD/SCID mice were injected i.p. with BCBL-1 cells. 72 h later, the compounds or vehicle were administered i.p. as described in the Methods, and weights were recorded weekly. At the end of the treatment period, the splenic tissues were collected from the vehicle or compound treated mice, compared and processed with the H&E and IHC staining. (F) Plasma concentrations of 009P1 after a single administration of 50 mg per kg body (oral gavage) were presented as mean ± SD (n = 3 mice per time point). (G-I) NOD/SCID mice were injected i.p. with BCBL-1 cells. 72 h later, the compounds or vehicle were administered orally as described in the Methods, and weights were recorded weekly.
In all NOD/SCID mice, 6–8-week-old, male (Jackson Laboratory, Ellsworth, Maine, USA), 1 × 10^7 BCBL-1 cells in 200 μL RMPI-1640 without FBS were injected intraperitoneally and then mice were randomized into treatment groups of 6 mice as described previously. The tested compounds or vehicle was administered initially at 72 h after BCBL-1 injections, and continued once daily, 2 days per week for 3 weeks. Weights were recorded weekly as a surrogate measure of tumor progression. At the end of experiment, the spleens of mice were excised for immunoblots and immunohistochemical analyses.
Formalin-fixed, paraffin-embedded tissues were microtome-sectioned to a thickness of 4 μm and placed on electromagnetically charged slides. Immunohistochemistry was performed as described previously, and the c-Myc and H3K9Ac antibodies were purchased from Abcam. Images were collected using an Olympus BX61 microscope equipped with a high resolution DP72 camera and CellSense image capture software.

In another data set the test system is JSC-1. The data set can be described thus: WST-1 cytotoxicity assay, JSC-1 (KSHV+ PEL). Format: cell-based. Particulars: 72 h.
Excerpt: (§2) Fig 2 Identification of newly synthesized dual inhibitors with anti-PEL activities. (A) The binding mode of (+)-JQ1 with BRD4^BD1 (PDB: 3MXF). BRD4^BD1 is shown as hot pink cartoon with gray surface. Asn140 in BRD4^BD1 is shown as sticks and colored in following pattern: atom C hot pink, atom N dark blue, and atom O yellow. (+)-JQ1 is shown as sticks and colored in following patten: atom C hot pink, atom N dark blue, atom O yellow, atom S golden, and atom Cl green. The solvent exposed region (SEG) of (+)-JQ1 are indicated with white arrow. (B) The binding modes of SAHA and entinostat with HDAC2 (PDB: 3MAX). HDAC2 is shown as blue cartoon with gray surface. Asp181 and His183 in HDAC2 are shown as sticks and colored in following pattern: atom C blue, atom N dark blue, and atom O yellow. The catalytic zinc ion in the active site of HDAC2 is shown as black sphere. SAHA is shown as sticks and colored in following pattern: atom C green, atom N dark blue, and atom O yellow. Entinostat is shown as sticks and colored in following pattern: atom C hot pink, atom N dark blue, and atom O yellow. The SEG of SAHA or entinostat is indicated with white arrow. Hydrogen bonds (H-bonds) are presented by red dash lines. (C) The HDACs/BRD4 dual inhibitors 002-011 were designed by fusing the key pharmacophores of (+)-JQ1 (pink) and HDAC inhibitors (blue), SAHA or entinostat, via various chemical linkers (green). (D) Anti-PEL activities of the new compounds. Five KSHV positive and two KSHV negative lymphoma cell lines were treated with indicated concentrations of these compounds for 72 h. Then the cytotoxicity was determined using the WST-1 assay. (+)-JQ1, SAHA and entinostat were used for the comparisons as single inhibitors. The CC50 for each compound was calculated using GraphPad Prism 5.0 software. Error bars represent S.D. for 3 independent experiments.
(§3) Fig 4 Identification of anti-PEL activities for compound 009 stereoisomers. (A) The chemical structures of anti-HDACs/BRD4 bifunctional molecules 009P1 and 009P2, as well as anti-HDACs or anti-BRD4 mono-functional molecules 009N1, 009N2, 009N3, and 009N4. (B-C) Four KSHV+ PEL cell lines were treated with indicated concentrations of 009P1, 009P2 or 009N1-N4 for 72 h, then the cytotoxicity was determined using the WST-1 assay. (D-I) BCBL-1 cells were treated with these compounds at the respective 2× CC50 for 24 h, then cell cycle (D-F) and apoptosis (G-I) were measured by flow cytometry analysis. Error bars represent S.D. for 3 independent experiments, ** = p<0.01 (vs vehicle control).
as §1

Data set [4] relates to KSHV. Description: Viral DNA levels in PEL cells by qPCR. The format is cell-based. Background: Real-time PCR tracks product formation cycle by cycle.
The next data set deals with BCP-1. Description: WST-1 cytotoxicity assay, BCP-1 (KSHV+ PEL). The format is cell-based. Particulars: BCP-1, 72 h.
Excerpt: as §2, §3, §1

In a further data set the test system is BRD4. Description: BRD4 signaling by Western blot (c-Myc expression). Format: cell-based. Particulars: BCBL-1 cells, 48 h, Western blot.
In a further data set the test system is BCBL-1. Description: WST-1 cytotoxicity assay, BCBL-1 (KSHV+ PEL). Format: cell-based. The note with it: BCBL1, 72 h.
Excerpt: as §2, §3, §1

A further data set relates to BC-1. Description: WST-1 cytotoxicity assay, BC-1 (KSHV+ PEL). The format is cell-based. Particulars: Homo sapiens, BC1, 72 h.
Excerpt: as §2, §3, §1

The test system of data set [5] is BCBL-1 cells. The data set can be described thus: RNA-Sequencing of compound-treated vs vehicle-treated cells. The format is cell-based, human. The method, then:
RNA-Sequencing (RNA-Seq) of triplicate samples was performed by BGI Americas Corporation using their unique DNBSEQ sequencing technology. The completed RNA-Sequencing data was submitted to NCBI Sequence Read Archive (SRA# # PRJNA813422). Raw sequencing reads were analyzed using the RSEM software (version 1.3.0; human GRCh38 genome sequence and annotation) and gene expression was quantified as previously described. The EBSeq software was utilized to call differentially expressed genes that were statistically significant using a false discovery rate (FDR) less than 0.05. Differentially expressed genes between compounds- and vehicle-treated PEL cells were used as input for the GO enrichment analyses.

For a further data set, the system named is BJAB.219. The data set can be described thus: WST-1 cytotoxicity assay, BJAB.219 (KSHV-infected lymphoma). Format: cell-based. Particulars: 72 h, read-out: KSHV-infected lymphomas CC50, BJAB.219.
Excerpt: as §2
BCBL-1 and iSLK.219 cells were kindly provided by Dr. Pinghui Feng (University of Southern California). BL-41, BJAB, BCP-1, BC-1, BC-3, JSC-1, HUVEC cells were purchased from American Type Culture Collection (ATCC), and cultured as recommended by the manufacturer. For making BJAB.219 cells, BJAB cells were infected with rKSHV.219 stock by spinoculation as previously reported by centrifugation at 1500×g for 60 min [31]. Then, puromycin (10 μg/ml) was added into the medium at 72 h post-infection and the medium containing puromycin was replaced twice a week. After 6-week high concentration of puromycin selection, BJAB.219 cells were then cultured in the medium with 0.5 μg/ml puromycin.
The cell viability following treatment with compounds was assessed by the WST-1 assay (Roche, Indianapolis, Indiana, USA) according to the manufacturer’s protocol as described previously. The absorbance signal was measured using a microplate reader (Biotek Synergy 2). […]

A short description of data set [6]: WST-1 cytotoxicity assay, BJAB (KSHV negative lymphoma). The format is cell-based. Particulars: human.
Excerpt: as §2, §1

Data set [7] concerns KSHV. Format: cell-based, human.
Data set [8] is described as follows: WST-1 cytotoxicity assay, BL-41 (KSHV negative lymphoma). The format is cell-based. Particulars: human.
Excerpt: as §2, §1

Where [9] appears, read: gene expression, treated vs vehicle BCBL-1 cells.

Structures are written as SMILES. Read-outs that look alike come from different tables or passages of the source.

As usually defined, the CC50 is the concentration that lowers cell viability or growth by half. Take `Cc1sc2c(c1C)C(c1ccc(Cl)cc1)=N[C@@H](CC(=O)O[C@@H](C)c1ccc(C(=O)Nc3ccccc3N)cc1)c1nnc(C)n1-2` [009P2, (S)-1-(4-((2-aminophenyl)carbamoyl)phenyl)ethyl 2-((S)-4-(4-chlorophenyl)-2,3,9-trimethyl-6H-thieno[3,2-f][1,2,4]triazolo[4,3-a][1,4]diazepin-6-yl)acetate]: the “H3K9Ac, H4K9Ac and Acetyl-tubulin protein levels” value in the data set on HDACs is listed as “increased”. Also, the “Expression of p-RB, cleaved-caspase 3 and cleaved-PARP” value in the data set with BCBL-1 cells [1] was “strongly affected”. In the data set with KSHV [2], the “Expression of viral genes (LANA, RTA, ORF26)” value was “significantly increased”. Besides, the “Cytotoxicity in primary cells HUVEC” value in the data set with HUVEC is reported as “much less cytotoxicity”. Besides, in the data set on BCBL-1 cells [3] (i.p.), the “PEL tumor progression (ascites formation, spleen enlargement)” value is “dramatically suppressed PEL tumor progression”; the “Tumor infiltration into the spleen (H&E)” value is recorded as “only diffuse small tumor nodules”; the “Visible toxicity in mice (abnormal weight loss)” value was “not observed”. Besides, the “Tumor burden in mice (ascites formation, spleen enlargement)” value in the data set with BCBL-1 cells [3] (oral administration) is listed as “effectively repressed tumor burden”. In the data set with JSC-1 (read-out: CC50, JSC-1), the CC50 is 110 nM. Besides, the “Viral DNA levels” value in the data set with KSHV [4] is recorded as “slightly increased”. Besides, the CC50 in the data set on BCP-1 (read-out: CC50, BCP-1) stood at 28 nM. The c-Myc expression entry with BRD4 was “decreased”. In addition, the CC50 in the data set with BCBL-1 (read-out: CC50, BCBL-1) was found to be 3.3 nM. In addition, in the data set on BC-1 (read-out: CC50, BC-1), the CC50 amounted to 5.5 nM. In addition, the “Genes differentially expressed between 009P1- and 009P2-treated PEL cells” value with BCBL-1 cells [5] (BCBL-1, ≥ 2 fold-change and FDR < 0.05) is on record as 715 genes. Further, in the data set with BCBL-1 cells [5] (setting [9]), the “Ratio, ARC” value is listed as 17.91; the “Ratio, ARRDC3” value worked out at 41.32; the “Ratio, ATF3” value came to 22.98; the “Ratio, CCDC169-SOHLH2” value came out at 0.1511. For the same molecule, in the data set with BCBL-1 cells [5] (setting [9]), the “Ratio, CD28” value turned out to be 0.1264; the “Ratio, CD44” value came to 0.1695; the “Ratio, CFAP58” value is on record as 0.2474; the “Ratio, CHAC1” value was found to be 9.244. Also, in the data set on BCBL-1 cells [5] (setting [9]), the “Ratio, CSF1R” value stood at 42.35; the “Ratio, DDIT3” value was 16.53; the “Ratio, DDIT4” value came out at 24.97; the “Ratio, FOS” value stood at 77. Further, in the data set on BCBL-1 cells [5] (setting [9]), the “Ratio, IFNG” value is 0.1337; the “Ratio, IRF7” value is listed as 28.87; the “Ratio, LGALS9B” value is recorded as 0.03508; the “Ratio, MCM5” value came to 0.1. Moreover, in the data set on BCBL-1 cells [5] (setting [9]), the “Ratio, PRKCB” value is 0.03195; the “Ratio, RP11-707M3.3” value turned out to be 0.2332; the “Ratio, SOCS3” value is 41.85; the “Ratio, SPINT1” value came out at 0.1311.

Take `Cc1sc2c(c1C)C(c1ccc(Cl)cc1)=N[C@@H](CC(=O)OC(C)c1ccc(C(=O)Nc3ccccc3N)cc1)c1nnc(C)n1-2` (stereo partly drawn) [compound 009, 1-(4-((2-aminophenyl)carbamoyl)phenyl)ethyl 2-((S)-4-(4-chlorophenyl)-2,3,9-trimethyl-6H-thieno[3,2-f][1,2,4]triazolo[4,3-a][1,4]diazepin-6-yl)acetate]: the CC50 with BJAB.219 worked out at 230 nM; in the data set on JSC-1 (read-out: KSHV-infected lymphomas CC50, JSC-1) it was 84 nM; in the data set with BCP-1 (read-out: KSHV-infected lymphomas CC50, BCP-1), 120 nM; in the data set on BCBL-1 (read-out: KSHV-infected lymphomas CC50, BCBL-1) it was 20 nM; with BC-1 (read-out: KSHV-infected lymphomas CC50, BC-1), 96 nM. The CC50 at 72 h in [6] came to 1320 nM; in [8], 3370 nM. For the same molecule, in the data set on KSHV [7], the “Expression of lytic genes RTA, PF and ORF26” value was “elevated”.
